We go through 1 molecule from patent publication US20200038416A1, “METHODS OF TREATING CARDIAC CONDUCTION DEFECTS USING AMINOSTEROL COMPOSITIONS” (Enterin, Inc., priority 2018, published 2020).

The conditions of data set [1]: mice, systemic administration; into the duodenum through the biliary tract; cited from earlier work.
A short description of data set [2]: Oral bioavailability / systemic absorption estimate versus prior IV pharmacokinetic data. The class given is in vivo, human. The conditions noted are these: this study, PD patients. The procedure:
PK data were collected on the 10 patients enrolled in Stage 1 and 10 patients enrolled in Stage 2 to determine the extent of systemic absorption. In Stage 1, PK data were obtained at each visit, pre-medication, at 1, 2, 4, 8 and 24 hours (Table 10). In Stage 2, PK was measured on days 1 and 6 of the randomization period pre-medication, at 1, 2, 4 and 8 hours (Table 11).

Data set [3] can be described thus: Prior clinical trials of intravenous squalamine. It counts as in vivo, human. The conditions noted are these: prior studies. As to the method:
Systemic absorption of the aminosterol following oral administration was negligible both in this study and in prior studies involving mice, rats and dogs. […] The topical action would also explain why adverse events were largely confined to the gastrointestinal tract.
In the current clinical trial, squalamine (ENT-01) was administered orally to subjects with PD who have long standing constipation. Although this trial was the first in man oral dosing study of ENT-01, humans have long been exposed to low doses of squalamine (milligram to microgram) in the various commercial dogfish shark liver extracts available as nutraceuticals (e.g., Squalamax).

Data set [4] deals with mice with constipation due to overexpression of human αS. The conditions noted are these: mouse models of PD, oral administration; cited from earlier work.
For data set [5], the system named is IPANs (intrinsic primary afferent neuron). The conditions noted are these: perfusion through lumen of isolated bowel segment; cited from earlier work.
The conditions of data set [6]: prior studies; cited from earlier work.

SMILES strings stand for the structures. Entries after “also recorded” stand apart in the source; their conditions may differ.

As for `CC(C)[C@@H](CC[C@@H](C)[C@H]1CC[C@H]2[C@@H]3[C@H](O)C[C@H]4C[C@@H](NCCCNCCCCN)CC[C@]4(C)[C@H]3CC[C@]12C)OS(=O)(=O)O` [squalamine], the clearance and excretion result in data set [1] is “cleared by the liver and excreted as the intact molecule”. The “systemic absorption following oral administration” value in data set [2] was “negligible; also recorded: not significantly absorbed”. For the same molecule, in data set [3], the “systemic blood levels after intravenous versus oral administration” value was “one thousand-fold greater”. Moreover, in data set [4], the gastrointestinal motility result is given as “stimulates gastro-intestinal motility; also recorded: reverse gastrointestinal dysmotility”. The “effect on IPANs of the ENS” value in data set [5] is given as “excitation of IPANs”. In addition, the “effect of intravenous administration on gastrointestinal motility” value in data set [6] is listed as “not associated with increased gastrointestinal motility”.
